The values that follow come from US7754736B2, “5-aminoindole derivatives as H3 inverse agonists” (Hoffmann-La Roche Inc., priority 2005, dated 2010).

Where a name gives a salt, the structure may show the parent alone.

The assay deals with T1, histamine 3 receptor (H3R) (Homo sapiens, UniProt Q9Y5N1).
T1 construct: expressed in transfected cells; host or cells: CHO cells
The experiment in a line: Competition binding assay with 3H-(R)α-methylhistamine on membranes of the human HR3-CHO cell line. To be noted: competition with 3H(R)α-Methylhistamine (1 nM), Ki calculated from IC50 by Cheng-Prusoff equation. The method, then:
Binding Assay with ^3H-(R)α-methylhistamine Saturation binding experiments were performed using HR3-CHO membranes prepared as described in […]. Pharmacol. Exp. Therapeutics 307, 213-218. An appropriate amount of membrane (60 to 80 μg protein/well) was incubated with increasing concentrations of ^3H(R)α-Methylhistamine di-hydrochloride (0.10 to 10 nM). Non specific binding was determined using a 200 fold excess of cold (R)α-Methylhistamine dihydrobromide (500 nM final concentration). The incubation was carried out at room temperature (in deep-well plates shaking for three hours). The final volume in each well was 250 μl. The incubation was followed by rapid filtration on GF/B filters (pre-soaked with 100 μl of 0.5% PEI in Tris 50 mM shaking at 200 rpm for two hours). The filtration was made using a cell-harvester and the filter plates were then washed five times with ice cold washing buffer containing 0.5 M NaCl. After harvesting, the plates were dried at 55° C. for 60 min, then we added scintillation fluid (Microscint 40, 40 microl in each well) and the amount of radioactivity on the filter was determined in Packard top-counter after shaking the plates for two hours at 200 rpm at room temperature. Binding Buffer: 50 mM Tris-HCl pH 7.4 and 5 mM MgCl2×6H2O pH 7.4. Washing Buffer: 50 mM Tris-HCl pH 7.4 and 5 mM MgCl2×6H2O and 0.5 M NaCl pH 7.4. […] An appropriate amount of protein, e.g. approximately 500 cpm binding of RAMH at Kd, were incubated for 1 hour at room temperature in 250 μl final volume in 96-well plates in presence of ^3H(R)α-Methylhistamine (1 nM final concentration=Kd). Non-specific binding was determined using a 200 fold excess of cold (R)α-Methylhistamine dihydrobromide. All compounds were tested at a single concentration in duplicates. […] Ki's were calculated from IC50 based on Cheng-Prusoff equation (Cheng, Y, Prusoff, W H (1973) Biochem Pharmacol 22, 3099-3108).

T1 sequence (Q9Y5N1 whole entry): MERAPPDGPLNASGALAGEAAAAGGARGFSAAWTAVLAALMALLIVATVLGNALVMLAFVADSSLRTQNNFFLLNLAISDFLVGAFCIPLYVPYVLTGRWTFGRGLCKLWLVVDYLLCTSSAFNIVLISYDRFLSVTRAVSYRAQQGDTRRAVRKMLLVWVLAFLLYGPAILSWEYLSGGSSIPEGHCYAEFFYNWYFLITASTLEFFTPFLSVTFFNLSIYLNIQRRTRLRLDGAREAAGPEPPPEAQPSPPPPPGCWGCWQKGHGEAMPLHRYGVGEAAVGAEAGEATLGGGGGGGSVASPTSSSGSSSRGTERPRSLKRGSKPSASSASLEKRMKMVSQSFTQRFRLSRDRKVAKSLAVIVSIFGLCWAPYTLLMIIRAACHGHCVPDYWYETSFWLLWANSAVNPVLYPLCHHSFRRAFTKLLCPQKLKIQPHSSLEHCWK

Broadly, the Ki is the dissociation constant of the complex between target and ligand, obtained from inhibition or displacement. As for `CC(C)N1CCC(Nc2ccc3[nH]c(C(=O)N4CCOCC4)cc3c2)CC1` [Example 3, [5-(1-isopropyl-piperidin-4-ylamino)-1H-indol-2-yl]-morpholin-4-yl-methanone], the Ki was 47.5 nM.
Consider `CC(C)N1CCC(Oc2ccc3[nH]c(C(=O)N(C)C(C)C)cc3c2)CC1` [Example 19, 5-(1-isopropyl-piperidin-4-yloxy)-1H-indole-2-carboxylic acid isopropyl-methyl-amide], for which the inhibition constant Ki is 66 nM.
On to `CC(C)N1CCC(Nc2ccc3[nH]c(C(=O)N4CCOCC4)cc3c2)C1` (stereo not drawn) [Example 11, [5-(1-isopropyl-pyrrolidin-3-ylamino)-1H-indol-2-yl]-morpholin-4-yl-methanone bis-hydrochloride], for which the Ki is 256 nM.
